# From US6706663B2, “Herbicidal 3-heterocyclic substituted benzisothiazole and benzisoxazole compounds” (Wyeth, priority 2000, dated 2004)
# Assays:
# [1] = tested on: ABUTH (Abutilon theophrasti); test: Postemergence herbicidal evaluation; format: in vivo, Medic.; settings: postemergence
# Description: (§1) In the tests, seedling plants are grown in jiffy flats for about two weeks. […] After spraying, the plants are placed on greenhouse benches and are cared for in accordance with conventional greenhouse procedures. From four to five weeks after treatment, the seedling plants are examined and rated according to the rating system set forth below. Where more than one test is involved for a given compound, the data are averaged.
# (§2) Results of herbicide evaluation are expressed on a rating scale (0-9). The scale is based upon a visual observation of plant stand, vigor, malformation, size, chlorosis and overall plant appearance as compared with a control.
# [2] = tested on: AMBEL (Ambrosia artemisifolia); test: Postemergence herbicidal evaluation; format: in vivo, L.; settings: postemergence
# Description: as §1, §2
# [3] = tested on: CASOB (Cassia obtusifolia); test: Postemergence herbicidal evaluation; format: in vivo, L.; settings: postemergence
# Description: as §1, §2
# [4] = tested on: CHEAL (Chenopodium album); test: Postemergence herbicidal evaluation; format: in vivo, L.; settings: postemergence
# Description: as §1, §2
# GALAP (Galium aparine) [5] = test: Postemergence herbicidal evaluation; format: in vivo; settings: postemergence
# Description: as §1, §2
# [6] = tested on: IPOHE (Ipomoea hederacea); test: Postemergence herbicidal evaluation; format: in vivo, (L.) Jacq.; settings: postemergence
# Description: as §1, §2
# [7] = tested on: ECHCG (Echinochloa crus-galli); test: Postemergence herbicidal evaluation; format: in vivo, (L.) Beau; settings: postemergence
# Description: as §1, §2
# SETVI (Setaria viridis) [8] = test: Postemergence herbicidal evaluation; format: in vivo, (L.) Beau; settings: postemergence
# Description: In the tests, seedling plants are grown in jiffy flats for about two weeks. The test compounds are dispersed in 50/50 acetone/water mixtures containing 0.5% TWEEN® 20, a polyoxyethylene sorbitan monolaurate surfactant of Atlas Chemical Industries, in sufficient quantities to provide the equivalent of about 0.0040 kg to 1.000 kg per hectare of active compound when applied to the plants through a spray nozzle operating at 40 psi for a predetermined time. After spraying, the plants are placed on greenhouse benches and are cared for in accordance with conventional greenhouse procedures. From four to five weeks after treatment, the seedling plants are examined and rated according to the rating system set forth below. Where more than one test is involved for a given compound, the data are averaged.
# as §2
# [9] = tested on: GLXMAW (Soybean, Williams); test: Postemergence herbicidal evaluation; format: in vivo, Glycine max, (L.) Merr. cv Williams; settings: postemergence
# Description: as §1, §2
# ORYSAT (Rice, Tebonnet) [10] = test: Postemergence herbicidal evaluation; format: in vivo, Oryza sativa, (L.) Tebonnet; settings: postemergence
# Description: as §1, §2
# [11] = tested on: TRZAWR (Wheat, Winter, cv Riband); test: Postemergence herbicidal evaluation; format: in vivo, Triticum aestivum; settings: postemergence
# Description: as §1, §2
# ZEAMX (Corn, Field) [12] = test: Postemergence herbicidal evaluation; format: in vivo, Zea mays, L.; settings: postemergence
# Description: as §1, §2
# [13] = tested on: ABUTH (Abutilon theophrasti); test: Preemergence herbicidal evaluation; format: in vivo, Medic.; settings: rated 4-5 weeks after treatment
# Excerpt: as §2
# (§3) The preemergence herbicidal activity of the test compounds of the present invention is exemplified by the following tests in which the seeds of a variety of monocotyledonous and dicotyledonous plants are separately mixed with potting soil and planted on top of approximately one inch of soil in separate pint cups. […] The treated cups are then placed on greenhouse benches, watered and cared for in accordance with conventional greenhouse procedures. From four to five weeks after treatment, the tests are terminated and each cup is examined and rated according to the rating system provided in Example 87. The plant species used and the compounds evaluated are the same as those shown in Example 87.
# [14] = tested on: AMBEL (Ambrosia artemisifolia); test: Preemergence herbicidal evaluation; format: in vivo, L.; settings: rated 4-5 weeks after treatment
# Excerpt: as §2, §3
# [15] = tested on: CASOB (Cassia obtusifolia); test: Preemergence herbicidal evaluation; format: in vivo, L.; settings: rated 4-5 weeks after treatment
# Excerpt: as §2, §3
# [16] = tested on: CHEAL (Chenopodium album); test: Preemergence herbicidal evaluation; format: in vivo, L.; settings: rated 4-5 weeks after treatment
# Excerpt: as §2, §3
# GALAP (Galium aparine) [17] = test: Preemergence herbicidal evaluation; format: in vivo; settings: rated 4-5 weeks after treatment
# Excerpt: as §2, §3
# [18] = tested on: IPOHE (Ipomoea hederacea); test: Preemergence herbicidal evaluation; format: in vivo, (L.) Jacq.; settings: rated 4-5 weeks after treatment
# Excerpt: as §2, §3
# [19] = tested on: ECHCG (Echinochloa crus-galli); test: Preemergence herbicidal evaluation; format: in vivo, (L.) Beau; settings: rated 4-5 weeks after treatment
# Excerpt: as §2, §3
# SETVI (Setaria viridis) [20] = test: Preemergence herbicidal evaluation; format: in vivo, (L.) Beau; settings: rated 4-5 weeks after treatment
# Excerpt: as §2, §3
# [21] = tested on: GLXMAW (Soybean, Williams); test: Preemergence herbicidal evaluation; format: in vivo, Glycine max, (L.) Merr. cv Williams; settings: rated 4-5 weeks after treatment
# Excerpt: as §2, §3
# ORYSAT (Rice, Tebonnet) [22] = test: Preemergence herbicidal evaluation; format: in vivo, Oryza sativa, (L.) Tebonnet; settings: rated 4-5 weeks after treatment
# Excerpt: as §2, §3
# [23] = tested on: TRZAWR (Wheat, Winter, cv Riband); test: Preemergence herbicidal evaluation; format: in vivo, Triticum aestivum; settings: rated 4-5 weeks after treatment
# Excerpt: as §2, §3
# ZEAMX (Corn, Field) [24] = test: Preemergence herbicidal evaluation; format: in vivo, Zea mays, L.; settings: rated 4-5 weeks after treatment
# Excerpt: as §2, §3
# [25] = tested on: ECHORC (Echinochloa oryzoides); test: Flooded paddy, preemergence weed control; format: in vivo, Echinochloa oryzoides (Ard.) Fritsch.; settings: rated 3-4 weeks after treatment, 0-9 rating scale
# Description: as §2
# (§4) Preemergence herbicidal activity under flooded paddy conditions is determined as follows: plant seeds or propagating organs are planted in the top 0.5 cm of silt loam soil in 32 oz. plastic containers with a diameter of 10.5 cm and no drainage holes. Water is added to these containers and maintained at 1.5 to 3 cm above the soil surface for the duration of the experiment. […] The treated containers are placed on greenhouse benches and cared for in accordance with conventional greenhouse procedures.
# CYPIR (Cyperus iria) = test: Flooded paddy, preemergence weed control; format: in vivo; settings: rated 3-4 weeks after treatment, 0-9 rating scale
# Description: as §2, §4
# [26] = tested on: MOOVA (Monochoria vaginalis); test: Flooded paddy, preemergence weed control; format: in vivo, Presl.; settings: rated 3-4 weeks after treatment, 0-9 rating scale
# Description: as §2, §4
# [27] = tested on: SAGPY (Sagittaria pygmaea); test: Flooded paddy, preemergence weed control; format: in vivo, L.; settings: rated 3-4 weeks after treatment, 0-9 rating scale
# Description: as §2, §4
# ORYSAT (Rice, Tebonnet) [28] = test: Flooded paddy, post-transplant rice tolerance; format: in vivo, Oryza sativa, (L.) Tebonnet; settings: in vivo
# Description: as §2
# The tolerance of transplanted rice to post-transplanted herbicide application is determined as follows: two ten-day-old rice seedlings (cv. Tebonnet) are transplanted into silt loam soil in 32 oz. plastic containers with a diameter of 10.5 cm and no drainage holes. After transplanting, the containers are flooded and the water level is maintained at 1.5 to 3 cm above the soil surface. […] The treated containers are placed on greenhouse benches, watered such that the water level is maintained as stated above, and cared for in accordance with conventional greenhouse procedures.
compound,measurement,setting,value
"3-[3-[5-(bromomethyl)-5-hydroxy-m-diaxan-2-yl]-1,2-benzisothiazol-5-yl]-1-methyl-6-(trifluoromethyl)uracil [Compound 69]",ABUTH herbicidal rating,[1]; rate 0.0320 kg/ha,9.0
same,ABUTH herbicidal rating,[1]; rate 0.0620 kg/ha,9.0
same,AMBEL herbicidal rating,[2]; rate 0.0320 kg/ha,9.0
same,AMBEL herbicidal rating,[2]; rate 0.0620 kg/ha,9.0
same,CASOB herbicidal rating,[3]; rate 0.0320 kg/ha,0.0
same,CASOB herbicidal rating,[3]; rate 0.0620 kg/ha,2.0
same,CHEAL herbicidal rating,[4]; rate 0.0320 kg/ha,9.0
same,CHEAL herbicidal rating,[4]; rate 0.0620 kg/ha,7.0
same,GALAP herbicidal rating,GALAP (Galium aparine) [5]; rate 0.0320 kg/ha,4.0
same,GALAP herbicidal rating,GALAP (Galium aparine) [5]; rate 0.0620 kg/ha,6.0
same,IPOHE herbicidal rating,[6]; rate 0.0320 kg/ha,9.0
same,IPOHE herbicidal rating,[6]; rate 0.0620 kg/ha,9.0
same,ECHCG herbicidal rating,[7]; rate 0.0320 kg/ha,2.0
same,ECHCG herbicidal rating,[7]; rate 0.0620 kg/ha,3.0
same,SETVI herbicidal rating,SETVI (Setaria viridis) [8]; rate 0.0320 kg/ha,2.0
same,SETVI herbicidal rating,SETVI (Setaria viridis) [8]; rate 0.0620 kg/ha,4.0
same,GLXMAW herbicidal rating,[9]; rate 0.0320 kg/ha,7.5
same,GLXMAW herbicidal rating,[9]; rate 0.0620 kg/ha,7.0
same,ORYSAT herbicidal rating,"ORYSAT (Rice, Tebonnet) [10]; rate 0.0320 kg/ha",4.0
same,ORYSAT herbicidal rating,"ORYSAT (Rice, Tebonnet) [10]; rate 0.0620 kg/ha",4.0
same,TRZAWR herbicidal rating,[11]; rate 0.0320 kg/ha,4.0
same,TRZAWR herbicidal rating,[11]; rate 0.0620 kg/ha,4.5
same,ZEAMX herbicidal rating,"ZEAMX (Corn, Field) [12]; rate 0.0320 kg/ha",5.5
same,ZEAMX herbicidal rating,"ZEAMX (Corn, Field) [12]; rate 0.0620 kg/ha",5.5
same,Preemergence herbicidal rating ABUTH,[13]; Rate 0.0620 kg/ha,9.0
same,Preemergence herbicidal rating ABUTH,[13]; Rate 0.1250 kg/ha,9.0
same,Preemergence herbicidal rating ABUTH,[13]; Rate 0.2500 kg/ha,9.0
same,Preemergence herbicidal rating AMBEL,[14]; Rate 0.0620 kg/ha,7.0
same,Preemergence herbicidal rating AMBEL,[14]; Rate 0.1250 kg/ha,9.0
same,Preemergence herbicidal rating AMBEL,[14]; Rate 0.2500 kg/ha,8.0
same,Preemergence herbicidal rating CASOB,[15]; Rate 0.0620 kg/ha,0.0
same,Preemergence herbicidal rating CASOB,[15]; Rate 0.1250 kg/ha,1.0
same,Preemergence herbicidal rating CASOB,[15]; Rate 0.2500 kg/ha,6.0
same,Preemergence herbicidal rating CHEAL,[16]; Rate 0.0620 kg/ha,9.0
same,Preemergence herbicidal rating CHEAL,[16]; Rate 0.1250 kg/ha,9.0
same,Preemergence herbicidal rating CHEAL,[16]; Rate 0.2500 kg/ha,9.0
same,Preemergence herbicidal rating GALAP,GALAP (Galium aparine) [17]; Rate 0.0620 kg/ha,7.0
same,Preemergence herbicidal rating GALAP,GALAP (Galium aparine) [17]; Rate 0.1250 kg/ha,9.0
same,Preemergence herbicidal rating GALAP,GALAP (Galium aparine) [17]; Rate 0.2500 kg/ha,9.0
same,Preemergence herbicidal rating IPOHE,[18]; Rate 0.0620 kg/ha,1.0
same,Preemergence herbicidal rating IPOHE,[18]; Rate 0.1250 kg/ha,9.0
same,Preemergence herbicidal rating IPOHE,[18]; Rate 0.2500 kg/ha,9.0
same,Preemergence herbicidal rating ECHCG,[19]; Rate 0.0620 kg/ha,4.0
same,Preemergence herbicidal rating ECHCG,[19]; Rate 0.1250 kg/ha,8.0
same,Preemergence herbicidal rating ECHCG,[19]; Rate 0.2500 kg/ha,8.0
same,Preemergence herbicidal rating SETVI,SETVI (Setaria viridis) [20]; Rate 0.0620 kg/ha,7.0
same,Preemergence herbicidal rating SETVI,SETVI (Setaria viridis) [20]; Rate 0.1250 kg/ha,9.0
same,Preemergence herbicidal rating SETVI,SETVI (Setaria viridis) [20]; Rate 0.2500 kg/ha,9.0
same,Preemergence herbicidal rating GLXMAW,[21]; Rate 0.0620 kg/ha,2.0
same,Preemergence herbicidal rating GLXMAW,[21]; Rate 0.1250 kg/ha,9.0
same,Preemergence herbicidal rating GLXMAW,[21]; Rate 0.2500 kg/ha,9.0
same,Preemergence herbicidal rating ORYSAT,"ORYSAT (Rice, Tebonnet) [22]; Rate 0.0620 kg/ha",1.0
same,Preemergence herbicidal rating ORYSAT,"ORYSAT (Rice, Tebonnet) [22]; Rate 0.1250 kg/ha",2.0
same,Preemergence herbicidal rating ORYSAT,"ORYSAT (Rice, Tebonnet) [22]; Rate 0.2500 kg/ha",5.0
same,Preemergence herbicidal rating TRZAWR,[23]; Rate 0.0620 kg/ha,1.0
same,Preemergence herbicidal rating TRZAWR,[23]; Rate 0.1250 kg/ha,2.0
same,Preemergence herbicidal rating TRZAWR,[23]; Rate 0.2500 kg/ha,5.0
same,Preemergence herbicidal rating ZEAMX,"ZEAMX (Corn, Field) [24]; Rate 0.0620 kg/ha",1.0
same,Preemergence herbicidal rating ZEAMX,"ZEAMX (Corn, Field) [24]; Rate 0.1250 kg/ha",3.0
same,Preemergence herbicidal rating ZEAMX,"ZEAMX (Corn, Field) [24]; Rate 0.2500 kg/ha",7.0
same,"herbicidal rating, ECHORC",[25]; rate 0.0080 kg/ha,0.0
same,"herbicidal rating, ECHORC",[25]; rate 0.0320 kg/ha,0.0
same,"herbicidal rating, ECHORC",[25]; rate 0.1250 kg/ha,3.0
same,"herbicidal rating, CYPIR",CYPIR (Cyperus iria); rate 0.0080 kg/ha,0.0
same,"herbicidal rating, CYPIR",CYPIR (Cyperus iria); rate 0.0320 kg/ha,0.0
same,"herbicidal rating, CYPIR",CYPIR (Cyperus iria); rate 0.1250 kg/ha,3.0
same,"herbicidal rating, MOOVA",[26]; rate 0.0080 kg/ha,0.0
same,"herbicidal rating, MOOVA",[26]; rate 0.0320 kg/ha,0.0
same,"herbicidal rating, MOOVA",[26]; rate 0.1250 kg/ha,3.0
same,"herbicidal rating, SAGPY",[27]; rate 0.0080 kg/ha,0.0
same,"herbicidal rating, SAGPY",[27]; rate 0.0320 kg/ha,0.0
same,"herbicidal rating, SAGPY",[27]; rate 0.1250 kg/ha,3.0
Cn1c(C(F)(F)F)cc(=O)n(-c2ccc3c(c2)C(c2cccc[n+]2[O-])=NS3(=O)=O)c1=O [Example 15],"herbicidal rating, ORYSAT (rice tolerance)","ORYSAT (Rice, Tebonnet) [28]",0.0
